Laboratory results published in patent US12480163B2, “Compositions and methods for identification assessment, prevention, and treatment of Ewing sarcoma using TP53 dependency biomarkers and modulators” (Dana-Farber Cancer Institute, Inc., priority 2018, dated 2025).
“Also recorded” adds a separate entry of the source.

Assays:
[1] = test system: TC32 xenograft tumor tissues; experiment: Pharmacodynamics study in TC32 xenograft tumor tissue (Western blot, quantitative PCR); type: in vivo, mice; settings: three doses 30 mg/kg IV q.o.d., 8 h after last dose
Description: (§1) Whole-cell lysates were extracted in cell lysis buffer (Cell Signaling) supplemented with EDTA-free protease inhibitors and PhosSTOP™ phosphatase inhibitors (Roche). Western immunoblotting was performed using standard techniques. Primary antibodies used included anti-MDM2 (ab178938; Abcam), anti-MDM2 (86934; Cell Signaling), anti-MDM4 (A300-287A; Bethyl Laboratories), anti-p53 (2527S; Cell Signaling), anti-p21 (2946S; Cell Signaling), anti-Vinculin (18058; Abcam), anti-Wip1 (A300-664A; Bethyl Laboratories), anti-pSer15-p53 (9284; Cell Signaling), anti-USP7 (A300-033A; Bethyl Laboratories), and anti-Tubulin (cp06; CalBiochem).
(§2) RNA was extracted from cells with the RNeasy® kit and on-column DNA digestion (Qiagen). cDNA was prepared using M-MLV reverse transcription (ThermoFisher Scientific). TaqMan™ Gene Expression Master Mix (Applied Biosystems) was used per the manufacturer's protocol. TaqMan™ probes included RPL13A (Hs04194366_g1; ThermoFisher Scientific), CDKNIA (Hs00355782_m1; Thermo Fisher Scientific), and MDM2 (Hs01066930_m1; ThermoFisher Scientific). Data were collected in triplicate and analyzed using the ΔΔCT method.
(§3) For pharmacodynamics studies, tumor xenografts were established in six nude female mice by implanting three million TC32 cells or PDX tumor fragments into the right flank. Animals were randomized to either ATSP-7041 (n=3) or vehicle treatment (n=3). […]

TP53 knockout cells = experiment: CellTiter-Glo cell viability assay, TP53 knockout cells; type: cell-based
Description: Lentivirus was produced by transfecting HEK-293T cells with the pLentiV2 vector (Addgene plasmid 52961) and the packaging plasmids pCMV8.9 and pCMV-VSVG according to the FuGENER 6 (Roche) protocol. For lentiviral transduction, Ewing sarcoma cells were incubated with 2 ml of virus and 8 μg/ml of polybrene (Sigma-Aldrich). Cells were selected in puromycin (Sigma-Aldrich) 48 h after infection for single knockout experiments. For dual knockout experiments, PPM1D, USP7, and MDM4 sgRNA sequences were cloned into a LentiV2 vector with a blasticidin selection marker (Addgene plasmid 83480).
d. sgRNA Sequences sgRNAs were designed using the Broad Institute's sgRNA designer tool. The following sequences were used as control or to target the respective genes: control sgRNA, 5′-[…]-3′ (SEQ ID NO: 125); sgMDM2 2: 5′-[…]-3′ (SEQ ID NO: 126); sgMDM2 5: 5′-[…]-3′ (SEQ ID NO: 127); sgMDM4 4: 5′-[…]-3′ (SEQ ID NO: 128); sgMDM4 6: 5′-[…]-3′ (SEQ ID NO: 129); sgUSP7 1: 5′-[…]-3′ (SEQ ID NO: 130); sgUSP7 2: 5′-ACCATACCCAAATTATTC CG-3′ (SEQ ID NO: 131); sgPPMID 1: 5′-[…]-3′ (SEQ ID NO: 132); sgPPMID 2: 5′-[…]-3′ (SEQ ID NO: 133); sgTP53 1: 5′-[…]-3′ (SEQ ID NO: 134); sgTP53 2: 5′-[…]-3′ (SEQ ID NO: 135); sgTP53 4: 5′-[…]-3′ (SEQ ID NO: 136); and sgTP53 5: 5′-[…]-3′ (SEQ ID NO: 137). e. Protein Extraction and Immunoblotting
(§4) Cell viability was assessed using the CellTiter-Glo® Luminescent Cell Viability Assay (Promega). Viability assays were performed after Ewing sarcoma cell lines were infected with sgRNAs targeting TP53, MDM2, MDM4, PPM1D, or USP7 or treated with ATSP-7041, ATSP-7342, GSK2830371, P5091, XL-188, or vehicle control.

PDX tumor tissues = experiment: Pharmacodynamics study in PDX tumor tissue (Western blot, quantitative PCR); type: in vivo, mice; settings: PDX HSJD-ES-002, three doses 30 mg/kg q.o.d.
Description: as §1, §2, §3

PDX tumors (HSJD-ES-002) = experiment: Ewing sarcoma PDX (HSJD-ES-002) anti-tumor efficacy study; type: in vivo, mice
Description: j. Ewing Sarcoma Xenograft Studies
For anti-tumor efficacy studies, tumor xenografts were established in 15 nude female mice by implanting three million TC32 cells into the right flank. Animals were randomized to either 20 d of treatment with 30 mg/kg q.o.d. IV ATSP-7041 (n=8) or vehicle (n=7) for a total of 10 doses. Treatment was started when tumors reached 100-200 mm3. Tumor volumes were measured with calipers twice a week. For PDX studies, tumor fragments were implanted into the right flank of nude female mice by minor surgery. After tumor engraftment, studies were performed as described for TC32 xenograft studies.
For in vivo studies, ATSP-7041 was prepared using the following protocol: mPEG-DSPE (Nanocs) was dissolved in chloroform and dried by a rotary evaporator. ATSP-7041 was dissolved in 1 M NaOH and diluted 100-fold in 10 mM histidine-buffered saline to a final concentration of 3 mg/ml. This mixture was added to the dried lipid film to a final mPEG-DSPE concentration of 50 mg/ml and final pH 7. The film was rehydrated by brief sonication and heating in a 50° C. water bath. The mixture was then subjected to five freeze-thaw cycles in liquid nitrogen and 40° C. water, respectively, and the solution passed 10 times through an Avanti Mini-Extruder Set (Avanti Polar Lipids) equipped with a 800-nm filter (Whatman).

[2] = test system: TP53 wild-type Ewing sarcoma cell lines; experiment: CellTiter-Glo cell viability assay, TP53 wild-type Ewing sarcoma cell lines; type: cell-based; settings: TP53 wild-type Ewing sarcoma cell lines, treated for 3 d, micromolar concentrations
Description: as §4

[3] = test system: MDM2, p53, and p21 protein levels; experiment: Western immunoblotting of MDM2, p53, p21 in TP53 wild-type Ewing sarcoma cell lines; type: cell-based
Description: as §1

[4] = test system: TP53 mutated Ewing sarcoma cell lines; experiment: CellTiter-Glo cell viability assay, TP53 mutated Ewing sarcoma cell lines; type: cell-based; settings: treated for 3 d
Description: as §4

CC(=O)N[C@@H](CC(C)C)C(=O)N[C@H](C(=O)N[C@@H](Cc1ccccc1)C(=O)N[C@]1(C)CCCCCCC=CCCC[C@@](C)(C(=O)N[C@@H](CO)C(=O)N[C@@H](C)C(=O)N[C@@H](C)C(N)=O)NC(=O)[C@H](CC2CCC2)NC(=O)[C@H](CCC(N)=O)NC(=O)[C@H](C)NC(=O)[C@H](Cc2c[nH]c3ccccc23)NC(=O)[C@H](Cc2ccc(O)cc2)NC(=O)[C@H](CCC(=O)O)NC1=O)[C@@H](C)O [ATSP-7041, Ac-Leu17-Thr-Phe-cyclo(R8-Glu-Tyr-Trp-Ala-Gln-Cba-S5)-Ser-Ala-Ala30-NH2]
MDM2, p53, and p21 protein levels in tumor tissue [1]: increase of MDM2, p53, and p21 protein levels; also recorded: increase in MDM2, p53, and p21 protein levels
MDM2 and p21 mRNA levels in tumor tissue ([1]; quantitative PCR): increase of MDM2 mRNA levels; also recorded: increase of p21 mRNA levels
effect of TP53 knockout on the cytotoxic effect of the compound (viability) (TP53 knockout cells): fully rescues the cytotoxic effect
p53 pathway protein levels in tumor tissue (PDX tumor tissues; 8 h after last dose): increase of MDM2, p53, and p21 protein levels; also recorded: increased intratumoral p53 and p21 protein levels
MDM2 and p21 mRNA levels in tumor tissue (PDX tumor tissues; quantitative PCR): increase of MDM2 mRNA levels; also recorded: increase of p21 mRNA levels; also recorded: increased MDM2 and p21 mRNA levels
survival of mice (PDX tumors (HSJD-ES-002); PDX HSJD-ES-002, 10 doses 30 mg/kg q.o.d. vs vehicle): significantly extended
tumor growth (normalized tumor volume) (PDX tumors (HSJD-ES-002); PDX HSJD-ES-002, 10 doses 30 mg/kg q.o.d. vs vehicle, 30 mg/kg): slowed significantly; also recorded: slowed in all mice
complete tumor regression (PDX tumors (HSJD-ES-002); PDX HSJD-ES-002, one mouse of n=8, observed time frame of 227 d): complete tumor regression without recurrence; also recorded: one out of eight mice achieved complete and sustained remission of disease
cell viability, normalized to vehicle control [2]: selectively reduced the viability
p53 protein levels, combination of ATSP-7041 and doxorubicin ([3]; TC32 cells, 2 d): greatly increased p53 protein levels
p53 protein levels, combination of ATSP-7041 and etoposide ([3]; TC32 cells, 2 d): greatly increased p53 protein levels
p53 protein levels, combination of ATSP-7041 and vincristine ([3]; TC32 cells, 2 d): greatly increased p53 protein levels
MDM2, p53, and p21 protein levels ([3]; TP53 wild-type Ewing sarcoma cell lines, Western blot): increased protein levels of MDM2, p53, and p21; also recorded: Concentration-dependent increases
cell viability, normalized to vehicle control [4]: resistant
